Data from patent publication US9833497B2, “Human originated EGF domain proteins and use of the same” (CHENGDU SOURCEBIO LIMITED-LIABILITY COMPANY, priority 2013, dated 2017).

What was measured:
Type in all cases: cell-based
Serratia marcescens = experiment: MIC against Gram-negative bacteria: Serratia marcescens
In short: (§1)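 Growth inhibition by human EGF domain proteins was scored in LB liquid culture seeded at 5×10^5 CFU/mL. Protein was applied as a two-fold dilution series in triplicate, with shaking incubation at 37° C; MIC is the lowest concentration giving no growth.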

E. coli BL21 = experiment: MIC against Gram-negative bacteria: E. coli BL21
In short: as §1

Citrobacter diversus = experiment: MIC against Gram-negative bacteria: Citrobacter diversus
In short: as §1

Proteus mirabilis = experiment: MIC against Gram-negative bacteria: Proteus mirabilis
In short: as §1

Proteus vulgaris = experiment: MIC against Gram-negative bacteria: Proteus vulgaris
In short: as §1

Aeromonas hydrophila = experiment: MIC against Gram-negative bacteria: Aeromonas hydrophila
In short: as §1

Enterobacter cloacae = experiment: MIC against Gram-negative bacteria: Enterobacter cloacae
In short: as §1

Pseudomonas aeruginosa = experiment: MIC against Gram-negative bacteria: Pseudomonas aeruginosa
In short: as §1

Moraxella catarrhalis = experiment: MIC against Gram-negative bacteria: Moraxella catarrhalis
In short: as §1

Klebsiella pneumonia = experiment: MIC against Gram-negative bacteria: Klebsiella pneumonia
In short: as §1

E. coli DH5α = experiment: Antibacterial activity: MIC and growth curve against E. coli DH5α in 96-well plate; conditions: minimal inhibitory concentration against E. coli DH5α; 96-well plate, 5×10^5 CFU/mL, 37° C., judged after 8 h
In short: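 MIC taken as lowest protein level with no bacterial growth, tracked by A600 every 30 min during 37 °C, 175 rpm culture. Two-fold protein series 50-12.5 μg/mL final, triplicate wells, against 5×10^5 CFU/mL of LB-washed mid-log cells.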

[1] = 96-well plate, 5×10^5 CFU/mL, 37° C., 10 h
[2] = Serratia marcescens, 5×10^5 CFU/mL, 10 h cultivation at 37° C.
[3] = E. coli BL21, 5×10^5 CFU/mL, 10 h cultivation at 37° C.
[4] = Citrobacter diversus, 5×10^5 CFU/mL, 10 h cultivation at 37° C.
[5] = Proteus mirabilis, 5×10^5 CFU/mL, 10 h cultivation at 37° C.
[6] = Proteus vulgaris, 5×10^5 CFU/mL, 10 h cultivation at 37° C.
[7] = Aeromonas hydrophila, 5×10^5 CFU/mL, 10 h cultivation at 37° C.
[8] = Enterobacter cloacae, 5×10^5 CFU/mL, 10 h cultivation at 37° C.
[9] = Pseudomonas aeruginosa, 5×10^5 CFU/mL, 10 h cultivation at 37° C.
[10] = Moraxella catarrhalis, 5×10^5 CFU/mL, 10 h cultivation at 37° C.
[11] = Klebsiella pneumonia, 5×10^5 CFU/mL, 10 h cultivation at 37° C.
[12] = S. marcescens, 10 h cultivation at 37° C., 5×10^5 CFU/mL
[13] = E. coli BL21, 10 h cultivation at 37° C., 5×10^5 CFU/mL
[14] = C. diversus, 10 h cultivation at 37° C., 5×10^5 CFU/mL
[15] = P. mirabilis, 10 h cultivation at 37° C., 5×10^5 CFU/mL
[16] = P. vulgaris, 10 h cultivation at 37° C., 5×10^5 CFU/mL
[17] = A. hydrophila, 10 h cultivation at 37° C., 5×10^5 CFU/mL
[18] = E. cloacae, 10 h cultivation at 37° C., 5×10^5 CFU/mL
[19] = P. aeruginosa, 10 h cultivation at 37° C., 5×10^5 CFU/mL
[20] = M. catarrhalis, 10 h cultivation at 37° C., 5×10^5 CFU/mL
[21] = K. pneumonia, 10 h cultivation at 37° C., 5×10^5 CFU/mL
[22] = 10 h cultivation at 37° C., 5×10^5 CFU/mL, two-fold serial dilution

**Q.** For “PRT484 (RCEDLDGVVCGGHGTCSCGRCVCERGWFGKLCQ; listed as Homo sapiens)”, which “MIC against S. marcescens” value (Serratia marcescens; [1]) is on record?
**A.** 12.5 µg/mL

**Q.** What about the “MIC against E. coli BL21” value (E. coli BL21; [1]) of the same substance?
**A.** 12.5 µg/mL

**Q.** And the “MIC against C. diversus” value (Citrobacter diversus; [1])?
**A.** 12.5 µg/mL

**Q.** And the “MIC against P. mirabilis” value (Proteus mirabilis; [1])?
**A.** 12.5 µg/mL

**Q.** What about the “MIC against P. vulgaris” value (Proteus vulgaris; [1]) of the same substance?
**A.** 50 µg/mL

**Q.** What about the “MIC against A. hydrophila” value (Aeromonas hydrophila; [1]) of the same substance?
**A.** 50 µg/mL

**Q.** What about the “MIC against E. cloacae” value (Enterobacter cloacae; [1]) of the same substance?
**A.** 12.5 µg/mL

**Q.** What about the “MIC against P. aeruginosa” value (Pseudomonas aeruginosa; [1]) of the same substance?
**A.** 25 µg/mL

**Q.** What about the “MIC against M. catarrhalis” value (Moraxella catarrhalis; [1]) of the same substance?
**A.** 50 µg/mL

**Q.** And the “MIC against K. pneumonia” value (Klebsiella pneumonia; [1])?
**A.** 50 µg/mL

**Q.** What about the MIC (E. coli DH5α) of the same substance?
**A.** 25 µg/mL

**Q.** What does the source list for “PRT1467 (QPQDCPPSTCLNGGTCHLGTRHHLACLCPEGFTGLYCE; listed as Homo sapiens)”?
**A.** MIC against S. marcescens (Serratia marcescens; [2]): 12.5 µg/mL; MIC against E. coli BL21 (E. coli BL21; [3]): 50 µg/mL; MIC against C. diversus (Citrobacter diversus; [4]): 12.5 µg/mL; MIC against P. mirabilis (Proteus mirabilis; [5]): 50 µg/mL; MIC against P. vulgaris (Proteus vulgaris; [6]): 25 µg/mL; MIC against A. hydrophila (Aeromonas hydrophila; [7]): 25 µg/mL; MIC against E. cloacae (Enterobacter cloacae; [8]): 50 µg/mL; MIC against P. aeruginosa (Pseudomonas aeruginosa; [9]): 25 µg/mL; MIC against M. catarrhalis (Moraxella catarrhalis; [10]): 25 µg/mL; MIC against K. pneumonia (Klebsiella pneumonia; [11]): 12.5 µg/mL; MIC (E. coli DH5α): 25 µg/mL

**Q.** What does the source list for “PRT904 (NTPDCTESSCFNGGTCVDGINSFTCLCPPGFTGSYCQ; listed as Homo sapiens)”?
**A.** MIC (Serratia marcescens; S. marcescens, 10 h cultivation at 37° C.): 25 µg/mL; MIC (E. coli BL21; E. coli BL21, 10 h cultivation at 37° C.): 12.5 µg/mL; MIC (Citrobacter diversus; C. diversus, 10 h cultivation at 37° C.): 12.5 µg/mL; MIC (Proteus mirabilis; P. mirabilis, 10 h cultivation at 37° C.): 12.5 µg/mL; MIC (Proteus vulgaris; P. vulgaris, 10 h cultivation at 37° C.): 25 µg/mL; MIC (Aeromonas hydrophila; A. hydrophila, 10 h cultivation at 37° C.): 25 µg/mL; MIC (Enterobacter cloacae; E. cloacae, 10 h cultivation at 37° C.): 12.5 µg/mL; MIC (Pseudomonas aeruginosa; P. aeruginosa, 10 h cultivation at 37° C.): 25 µg/mL; MIC (Moraxella catarrhalis; M. catarrhalis, 10 h cultivation at 37° C.): 25 µg/mL; MIC (Klebsiella pneumonia; K. pneumonia, 10 h cultivation at 37° C.): 12.5 µg/mL; MIC (E. coli DH5α): 50 µg/mL

**Q.** Which MIC (Serratia marcescens; [12]) does the source give for “PRT369 (DVDECLSSPCVSGVCRNLAGSYTCKCGPGSRLDPSGTFCL; listed as Homo sapiens)” here?
**A.** 12.5 µg/mL

**Q.** What about the MIC (E. coli BL21; [13]) of the same substance?
**A.** 25 µg/mL

**Q.** What about the MIC (Citrobacter diversus; [14]) of the same substance?
**A.** 25 µg/mL

**Q.** And the MIC (Proteus mirabilis; [15])?
**A.** 12.5 µg/mL

**Q.** What about the MIC (Proteus vulgaris; [16]) of the same substance?
**A.** 50 µg/mL

**Q.** And the MIC (Aeromonas hydrophila; [17])?
**A.** 12.5 µg/mL

**Q.** What about the MIC (Enterobacter cloacae; [18]) of the same substance?
**A.** 25 µg/mL

**Q.** What about the MIC (Pseudomonas aeruginosa; [19]) of the same substance?
**A.** 12.5 µg/mL

**Q.** What about the MIC (Moraxella catarrhalis; [20]) of the same substance?
**A.** 50 µg/mL

**Q.** What about the MIC (Klebsiella pneumonia; [21]) of the same substance?
**A.** 50 µg/mL

**Q.** What about the MIC (E. coli DH5α) of the same substance?
**A.** 50 µg/mL

**Q.** With “PRT1104 (EVDECASDPCKNEATCLNEIGRYTCICPHNYSGVNCE; listed as Homo sapiens)” as the substance, how does the “MIC S. marcescens” value (Serratia marcescens; [22]) read?
**A.** 25 µg/mL

**Q.** And the “MIC E. coli BL21” value (E. coli BL21; [22])?
**A.** 12.5 µg/mL

**Q.** And the “MIC C. diversus” value (Citrobacter diversus; [22])?
**A.** 25 µg/mL

**Q.** And the “MIC P. mirabilis” value (Proteus mirabilis; [22])?
**A.** 25 µg/mL

**Q.** What about the “MIC P. vulgaris” value (Proteus vulgaris; [22]) of the same substance?
**A.** 50 µg/mL

**Q.** And the “MIC A. hydrophila” value (Aeromonas hydrophila; [22])?
**A.** 50 µg/mL

**Q.** What about the “MIC E. cloacae” value (Enterobacter cloacae; [22]) of the same substance?
**A.** 25 µg/mL

**Q.** And the “MIC P. aeruginosa” value (Pseudomonas aeruginosa; [22])?
**A.** 50 µg/mL

**Q.** And the “MIC M. catarrhalis” value (Moraxella catarrhalis; [22])?
**A.** 12.5 µg/mL

**Q.** What about the “MIC K. pneumonia” value (Klebsiella pneumonia; [22]) of the same substance?
**A.** 12.5 µg/mL

**Q.** What about the MIC (E. coli DH5α) of the same substance?
**A.** 50 µg/mL

**Q.** Which “MIC (μg/mL) S. marcescens” value (Serratia marcescens; [12]) does the source give for “PRT799 (FHACSCHNGASCSAEDGACHCTPGWTGLFCT; listed as Homo sapiens)” here?
**A.** 25 µg/mL

**Q.** What about the “MIC (μg/mL) E. coli BL21” value (E. coli BL21; [13]) of the same substance?
**A.** 12.5 µg/mL

**Q.** And the “MIC (μg/mL) C. diversus” value (Citrobacter diversus; [14])?
**A.** 12.5 µg/mL

**Q.** And the “MIC (μg/mL) P. mirabilis” value (Proteus mirabilis; [15])?
**A.** 12.5 µg/mL

**Q.** What about the “MIC (μg/mL) P. vulgaris” value (Proteus vulgaris; [16]) of the same substance?
**A.** 50 µg/mL

**Q.** And the “MIC (μg/mL) A. hydrophila” value (Aeromonas hydrophila; [17])?
**A.** 12.5 µg/mL

**Q.** What about the “MIC (μg/mL) E. cloacae” value (Enterobacter cloacae; [18]) of the same substance?
**A.** 5 µg/mL

**Q.** What about the “MIC (μg/mL) P. aeruginosa” value (Pseudomonas aeruginosa; [19]) of the same substance?
**A.** 12.5 µg/mL

**Q.** What about the “MIC (μg/mL) M. catarrhalis” value (Moraxella catarrhalis; [20]) of the same substance?
**A.** 12.5 µg/mL

**Q.** What about the “MIC (μg/mL) K. pneumonia” value (Klebsiella pneumonia; [21]) of the same substance?
**A.** 12.5 µg/mL

**Q.** What about the MIC (E. coli DH5α) of the same substance?
**A.** 25 µg/mL

**Q.** What does the source list for “PRT1401 (VCHPRCIEHGTCKDGKCECREGWNGEHCT; listed as Homo sapiens)”?
**A.** MIC against S. marcescens (Serratia marcescens; [2]): 12.5 µg/mL; MIC against E. coli BL21 (E. coli BL21; [3]): 25 µg/mL; MIC against C. diversus (Citrobacter diversus; [4]): 12.5 µg/mL; MIC against P. mirabilis (Proteus mirabilis; [5]): 12.5 µg/mL; MIC against P. vulgaris (Proteus vulgaris; [6]): 25 µg/mL; MIC against A. hydrophila (Aeromonas hydrophila; [7]): 25 µg/mL; MIC against E. cloacae (Enterobacter cloacae; [8]): 12.5 µg/mL; MIC against P. aeruginosa (Pseudomonas aeruginosa; [9]): 12.5 µg/mL; MIC against M. catarrhalis (Moraxella catarrhalis; [10]): 25 µg/mL; MIC against K. pneumonia (Klebsiella pneumonia; [11]): 25 µg/mL; MIC (E. coli DH5α): 12.5 µg/mL
